Results as given in patent US11654136B2, “Phosphoinositide 3-kinase inhibitor with a zinc binding moiety” (Curis, Inc., priority 2011, dated 2023).

Tests used:
Raf, MEK, and ERK = assay: Western blot of RAF-MEK-ERK pathway in H460, A375, BT-474 and H1975 cells; assay type: cell-based; conditions: 100 nM, 16 hours
Protocol: Cell extracts were prepared in the presence of SDS and 2-mercaptoethanol and resolved in polyacrylamide gels. Proteins were transferred to nitrocellulose filter and blotting was done using standard procedures with blocking solutions (Li-Cor Bioscience) containing the indicated primary antibody. Primary antibodies against p-EGFR, EGFR, p-HER2, HER2, p-HER3, HER3, p-MET, MET, p-bRaf, p-cRaf, pMEK, MEK, p-ERK, ERK and tubulin were purchased from Cell Signaling Technology. Secondary antibody conjugated with IRdye 680, 800CW were used and the signal was detected with Li-Cor Odyssey Imager.
One major limitation of PI3K inhibitors in the treatment of cancers is the activation of the RAF-MEK-ERK pathway. HDAC inhibitors are able to inhibit kinase levels in this signaling pathway in cancer cells via epigenetic modification.

MM1S subcutaneous tumor = assay: MM1S xenograft model; assay type: in vivo, SCID/Beige mice; conditions: oral gavage five times per week
Protocol: Female SCID/Beige mice at age 4 weeks were housed in ventilated micro-isolator cages (INNOCAGE®IVC, Innovive Inc., San Diego, Calif.) in a controlled climate, fed with sterile high-fat diet (Problab-RMH 2000) ad libitum and provided with sterilized water. All housing and supplies for SCID/Beige mice were sterilized by autoclaving before use. Mice were inspected daily including weekends/holidays by trained animal facility personnel and investigators. All animal procedures were performed under sterile conditions within a biosafety cabinet (for injections) or laminar flow hood (for animal husbandry and non-invasive procedures).
MM1S human […] cells (Gold-Leikin R E, et al., J Lab Clin Invest. 1980; 113:335-345) were originally obtained from peripheral blood of a multiple myeloma patient. Cryopreserved cells were thawed in a 37° C. water bath and cultured in RPMI medium plus 10% Fetal Bovine Serum (FBS) in a tissue culture incubator at 5% CO2. Cells were sent to outside vendors for contaminants and rodent pathogen screening intended to rule out contamination by mycoplasma (by PCR) and/or virus (by MAP test, Mouse Antibody Production). […] The implanted mice were monitored for general health and tumor development daily.
Tumors were detectable about two weeks following implantation. Tumor size was measured with a caliper. […]
During each animal study, tumors were measured with calipers, tumor size determined using the above mentioned formula, and tumor size changes in percentage calculated. Mouse body weights were measured with a scale twice per week. […] In addition to the determination of tumor size changes, the last tumor measurement was used to generate the tumor weight change ratio (T/C value), a standard metric developed by the National Cancer Institute (NCI) for xenograft tumor evaluation T/C values were calculated using the following formula: % T/C=100×ΔT/ΔC if ΔT>0. […]
The treatment period was 15 days. Tumor sizes and body weights were measured again on the last day of the study.

[1] = Pharmacokinetic study in dogs; assay type: in vivo; conditions: beagle dogs
Description: FIG. 4 is a graph of plasma concentration versus time for both oral and iv dosing.

T and B lymphocytes = assay: Effect on circulating and lymphoid organ lymphocytes; assay type: in vivo, CD1 wild type mice; conditions: 100 mg/kg orally for five consecutive days
Protocol: Another 5 mice were treated with vehicle. Blood was collected at various time points (including pre-dosing, during dosing and post-dosing) from the mandibular vein. Blood was analyzed with a flow cytometer for T and B cell quantification.
The animals were sacrificed, and the lymphoid organs were collected. Cells were physically dissociated from the tissues and analyzed with a flow cytometer. Anti-CD3 and -CD19 antibodies were used to stain T and B cells, respectively.

COc1ccc(-c2nc(N3CCOCC3)c3sc(CN(C)c4ncc(C(=O)NO)cn4)cc3n2)cn1 [Compound 1, N-hydroxy-2-(((2-(6-methoxypyridin-3-yl)-4-morpholinothieno[3,2-d]pyrimidin-6-yl)methyl)(methyl)amino)pyrimidine-5-carboxamide]
Activation of Raf, MEK, and ERK (Raf, MEK, and ERK): suppressed activation of Raf, MEK, and ERK
T/C value (MM1S subcutaneous tumor; day 14, p<0.0001): 27.37%
Body weight and side effects (MM1S subcutaneous tumor; single agent, 15 days): No body weight loss or other side effects were observed
Tumor growth (MM1S subcutaneous tumor; single agent, 15 days): inhibited tumor growth
Area under the Curve ([1]; IV 5 mg/kg, plasma): 2977.47 ng/mL * hr
Half-life ([1]; IV 5 mg/kg, plasma): 1.85 h
Area under the Curve ([1]; PO Capsule 5 mg/kg, plasma): 450.4 ng/mL * hr
Half-life ([1]; PO Capsule 5 mg/kg, plasma): 4.88 h
bioavailability ([1]; dog, plasma, PO Capsule 5 mg/kg): 15.1%
Cmax ([1]; dog, IV 5 mg/kg, plasma): 6160 ng/mL
Cmax ([1]; dog, PO Capsule 5 mg/kg, plasma): 312 ng/mL
Plasma levels after oral dosing ([1]; oral 5 mg/kg in enteric capsules): Significant plasma levels
Blood levels of T and B lymphocytes (T and B lymphocytes; blood): significant reversible reduction in the blood levels of both T and B lymphocytes
T and B lymphocyte levels in spleen and lymph nodes (T and B lymphocytes; spleen and lymph nodes): significant reduction in both T and B lymphocytes
